Test results reported in patent US7432227B2, “6-alkyl or alkenyl-4-aminopicolinates and their use as herbicides” (Dow AgroSciences LLC, priority 2003, dated 2008).

Tests used:
[1] = system: Ivyleaf Morningglory (Ipomoea hederacea); assay: Preemergence herbicidal activity, Ivyleaf Morningglory; type: in vivo; settings: pre-emergence, 504 h, visual score after 3 weeks, 100 = complete kill or no germination, read-out: Pre-emergent % control IPOHE; for pest or weed control at 560 ppm: rate 560 ppm; for pest or weed control at 140 ppm: rate 140 ppm; for pest or weed control at 280 ppm: rate 280 ppm
From the text: (§1) Seeds of the desired test plant species were planted in a soil matrix prepared by mixing a loam soil (43 percent silt, 19 percent clay, and 38 percent sand, with a pH of about 8.1 and an organic matter content of about 1.5 percent) and sand in a 70 to 30 ratio. The soil matrix was contained in plastic pots with a surface area of 113 square centimeters. When required to ensure good germination and healthy plants, a fungicide treatment and/or other chemical or physical treatment was applied. A weighed amount, determined by the highest rate to be tested, of each test compound was placed in a 20 mL glass vial and was dissolved in 4 mL of a 97:3 v/v (volume/volume) mixture of acetone and dimethyl sulfoxide to obtain concentrated stock solutions. […] The stock solutions obtained were diluted with a 99.9:0.1 mixture of water and Tween® […] surfactant to obtain application solutions of known concentration. The solutions containing the highest concentration to be tested were prepared by diluting 2 mL aliquots of the stock solution with 15 mL of the mixture and lower concentrations were prepared by serial dilution of the stock solution. A 2.5 mL aliquot of each solution of known concentration was sprayed evenly onto the soil surface (113 sq. cm) of each seeded pot using a Cornwall 5.0 mL glass syringe fitted with a TeeJet TN-3 hollow cone nozzle to obtain thorough coverage of the soil in each pot. Control pots were sprayed in the same manner with the aqueous mixture. The treated pots and control pots were placed in a greenhouse maintained with an approximate 15 hr photoperiod and temperatures of about 23-29° C. during the day and 22-28° C. during the night. Nutrients and water were added on a regular basis and supplemental lighting was provided with overhead metal halide 1000-Watt lamps as necessary. The water was added by top-irrigation. After 3 weeks the condition of the test plants that germinated and grew as compared with that of the untreated plants that germinated and grew was determined visually and scored on a scale of 0 to 100 percent where 0 corresponds to no injury and 100 corresponds to complete kill or no germination.

[2] = system: Giant Foxtail (Setaria faberi); assay: Postemergence herbicidal activity, Giant Foxtail; type: in vivo; settings: post-emergence, 336 h, visual score after 2 weeks, 0 = no injury, 100 = complete kill, read-out: Post-emergent % control SETFA; for pest or weed control at 250 ppm: rate 250 ppm
Experimental: (§2) Seeds of the desired test plant species were planted in Grace-Sierra MetroMix® 306 planting mixture, which typically has a pH of 6.0 to 6.8 and an organic matter content of about 30 percent, in plastic pots with a surface area of 64 square centimeters. When required to ensure good germination and healthy plants, a fungicide treatment and/or other chemical or physical treatment was applied. The plants were grown for 7-21 days in a greenhouse with an approximate 15 hr photoperiod which was maintained at about 23-29° C. during the day and 22-28° C. during the night. Nutrients and water were added on a regular basis and supplemental lighting was provided with overhead metal halide 1000-Watt lamps as necessary. The plants were employed for testing when they reached the first or second true leaf stage. A weighed amount, determined by the highest rate to be tested, of each test compound was placed in a 20 mL glass vial and was dissolved in 4 mL of a 97:3 v/v (volume/volume) mixture of acetone and dimethyl sulfoxide (DMSO) to obtain concentrated stock solutions. […] The concentrated stock solutions obtained were diluted with an aqueous mixture containing acetone, water, isopropyl alcohol, DMSO, Atplus 411F crop oil concentrate, and Triton X-155 surfactant in a 48.5:39:10:1.5:1.0:0.02 v/v ratio to obtain spray solutions of known concentration. The solutions containing the highest concentration to be tested were prepared by diluting 2 mL aliquots of the stock solution with 13 mL of the mixture and lower concentrations were prepared by serial dilution of the stock solution. Approximately 1.5 mL aliquots of each solution of known concentration were sprayed evenly onto each of the test plant pots using a DeVilbiss atomizer driven by compressed air pressure of 2 to 4 psi (140 to 280 kilopascals) to obtain thorough coverage of each plant. Control plants were sprayed in the same manner with the aqueous mixture. In this test an application rate of 1 ppm results in the application of approximately 1 g/Ha. The treated plants and control plants were placed in a greenhouse as described above and watered by sub-irrigation to prevent wash-off of the test compounds. After 2 weeks the condition of the test plants as compared with that of the untreated plants was determined visually and scored on a scale of 0 to 100 percent where 0 corresponds to no injury and 100 corresponds to complete kill.

[3] = system: Giant Foxtail (Setaria faberi); assay: Preemergence herbicidal activity, Giant Foxtail; type: in vivo; settings: pre-emergence, 504 h, visual score after 3 weeks, 100 = complete kill or no germination, read-out: Pre-emergent % control SETFA; for pest or weed control at 560 ppm: rate 560 ppm; for pest or weed control at 140 ppm: rate 140 ppm; for pest or weed control at 280 ppm: rate 280 ppm
From the text: as §1

[4] = system: Lambsquarter (Chenopodium album); assay: Postemergence herbicidal activity, Lambsquarter; type: in vivo; settings: post-emergence, 336 h, visual score after 2 weeks, 0 = no injury, 100 = complete kill, read-out: Post-emergent % control CHEAL; for pest or weed control at 250 ppm: rate 250 ppm
Experimental: as §2

[5] = system: Barnyardgrass (Echinochloa crus-galli); assay: Postemergence herbicidal activity, Barnyardgrass; type: in vivo; settings: post-emergence, 336 h, visual score after 2 weeks, 0 = no injury, 100 = complete kill, read-out: Post-emergent % control ECHCG; for pest or weed control at 250 ppm: rate 250 ppm
Experimental: as §2

[6] = system: Lambsquarter (Chenopodium album); assay: Preemergence herbicidal activity, Lambsquarter; type: in vivo; settings: pre-emergence, 504 h, visual score after 3 weeks, 100 = complete kill or no germination, read-out: Pre-emergent % control CHEAL; for pest or weed control at 560 ppm: rate 560 ppm; for pest or weed control at 140 ppm: rate 140 ppm; for pest or weed control at 280 ppm: rate 280 ppm
From the text: as §1

[7] = system: Cocklebur (Xanthium strumarium); assay: Postemergence herbicidal activity, Cocklebur; type: in vivo; settings: post-emergence, 336 h, visual score after 2 weeks, 0 = no injury, 100 = complete kill, read-out: Post-emergent % control XANST; for pest or weed control at 250 ppm: rate 250 ppm
Experimental: as §2

[8] = system: Crabgrass(large) (Digitaria sanguinalis); assay: Preemergence herbicidal activity, Crabgrass(large); type: in vivo; settings: pre-emergence, 504 h, visual score after 3 weeks, 100 = complete kill or no germination, read-out: Pre-emergent % control DIGSA; for pest or weed control at 560 ppm: rate 560 ppm; for pest or weed control at 140 ppm: rate 140 ppm; for pest or weed control at 280 ppm: rate 280 ppm
From the text: as §1

With `C=Cc1cc(N)c(Cl)c(C(=O)OC)n1` [Compound 2, Methyl 4-amino-3-chloro-6-vinylpyridine-2-carboxylate] the pest or weed control at 560 ppm [1] was 60%, the pest or weed control at 250 ppm [2] was 10% and the pest or weed control at 560 ppm [3] was 0%. The pest or weed control at 250 ppm [4] was 85%, the pest or weed control at 250 ppm [5] was 0% and the pest or weed control at 560 ppm [6] was 100%. The pest or weed control at 250 ppm [7] was 80% and the pest or weed control at 560 ppm [8] was 0%.
`COC(=O)c1nc(C)c(F)c(N)c1Cl` [Compound 12, Methyl 4-amino-3-chloro-5-fluoro-6-methylpyridine-2-carboxylate] showed a pest or weed control at 140 ppm [1] of 100%, a pest or weed control at 250 ppm [2] of 95% and a pest or weed control at 140 ppm [3] of 98%. For the same molecule, the pest or weed control at 250 ppm [4] was 100%, the melting point was 113 to 114 °C and the pest or weed control at 250 ppm [5] was 80%. It also gave a pest or weed control at 140 ppm [6] of 100%, a pest or weed control at 250 ppm [7] of 100% and a pest or weed control at 140 ppm [8] of 100%.
In the case of `C=Cc1nc(C(=O)OC)c(Cl)c(N)c1F` [Compound 1, Methyl 4-amino-3-chloro-5-fluoro-6-vinylpyridine-2-carboxylate], the pest or weed control at 280 ppm [1] is reported as 100%, the pest or weed control at 250 ppm [2] is reported as 50% and the pest or weed control at 280 ppm [3] is reported as 90%. The pest or weed control at 250 ppm [4] was 100%, the melting point was 68 to 71 °C and the pest or weed control at 250 ppm [5] was 60%. The pest or weed control at 280 ppm [6] was 100%, the pest or weed control at 250 ppm [7] was 100% and the pest or weed control at 280 ppm [8] was 95%.
`Cc1nc(C(=O)O)c(Cl)c(N)c1F` [Compound 7, 4-Amino-3-chloro-6-methyl-5-fluoropyridine-2-carboxylic acid] gave a pest or weed control at 295 ppm ([1]; rate 295 ppm) of 98%, a pest or weed control at 288 ppm ([2]; rate 288 ppm) of 85% and a pest or weed control at 295 ppm ([3]; rate 295 ppm) of 85%. For the same molecule, the pest or weed control at 288 ppm ([4]; rate 288 ppm) was 98%, the pest or weed control at 288 ppm ([5]; rate 288 ppm) was 80% and the pest or weed control at 295 ppm ([6]; rate 295 ppm) was 98%. It also gave a pest or weed control at 288 ppm ([7]; rate 288 ppm) of 100% and a pest or weed control at 295 ppm ([8]; rate 295 ppm) of 85%.
With `Cc1cc(N)c(Cl)c(C(=O)O)n1` [Compound 8, 4-Amino-3-chloro-6-methylpyridine-2-carboxylic acid] the pest or weed control at 280 ppm [1] was 85%, the pest or weed control at 250 ppm [2] was 0% and the pest or weed control at 280 ppm [3] was 10%. It also gave a pest or weed control at 250 ppm [4] of 40%, a pest or weed control at 250 ppm [5] of 0% and a pest or weed control at 280 ppm [6] of 100%. It also gave a pest or weed control at 250 ppm [7] of 70% and a pest or weed control at 280 ppm [8] of 20%.
`CSCc1cc(N)c(Cl)c(C(=O)O)n1` [Compound 10, 4-Amino-3-chloro-6-[(methylthio)methyl]pyridine-2-carboxylic acid] showed a pest or weed control at 560 ppm [1] of 0%, a pest or weed control at 250 ppm [2] of 20% and a pest or weed control at 560 ppm [3] of 0%. It also gave a pest or weed control at 250 ppm [4] of 70%, a pest or weed control at 250 ppm [5] of 0% and a pest or weed control at 560 ppm [6] of 0%. The pest or weed control at 250 ppm [7] was 85% and the pest or weed control at 560 ppm [8] was 0%.
For `CCc1nc(C(=O)OC)c(Cl)c(N)c1F` [Compound 3, Methyl 4-amino-3-chloro-6-ethyl-5-fluoropyridine-2-carboxylate], the pest or weed control at 140 ppm [1] was 100%, the pest or weed control at 250 ppm [2] was 80% and the pest or weed control at 140 ppm [3] was 100%. For the same molecule, the pest or weed control at 250 ppm [4] was 100%, the melting point was 109 to 110 °C and the pest or weed control at 250 ppm [5] was 85%. The pest or weed control at 140 ppm [6] was 100%, the pest or weed control at 250 ppm [7] was 100% and the pest or weed control at 140 ppm [8] was 100%.
Work on `CCc1nc(C(=O)O)c(Cl)c(N)c1F` [Compound 5, 4-Amino-3-chloro-6-ethyl-5-fluoropyridine-2-carboxylic acid] yielded a pest or weed control at 140 ppm [1] of 100%, a pest or weed control at 250 ppm [2] of 70% and a pest or weed control at 140 ppm [3] of 90%. For the same molecule, the pest or weed control at 250 ppm [4] was 100%, the melting point was 144 to 145 °C and the pest or weed control at 250 ppm [5] was 85%. For the same molecule, the pest or weed control at 140 ppm [6] was 100%, the pest or weed control at 250 ppm [7] was 100% and the pest or weed control at 140 ppm [8] was 90%.
In the case of `C=CCc1cc(N)c(Cl)c(C(=O)O)n1` [Compound 11, 6-Allyl-4-amino-3-chloropyridine-2-carboxylic acid], the pest or weed control at 560 ppm [1] is reported as 80%, the pest or weed control at 250 ppm [2] is reported as 0% and the pest or weed control at 560 ppm [3] is reported as 0%. The pest or weed control at 250 ppm [4] was 70%, the pest or weed control at 250 ppm [5] was 0% and the pest or weed control at 560 ppm [6] was 40%. The pest or weed control at 250 ppm [7] was 85% and the pest or weed control at 560 ppm [8] was 0%.
